# Measured values taken from paper PMC7956517, “Induction of Apoptosis and Regulation of MicroRNA Expression by (2E,6E)-2,6-bis-(4-hydroxy-3-methoxybenzylidene)-cyclohexanone (BHMC) Treatment on MCF-7 Breast Cancer Cells” (Molecules, 2021).
# How the values were obtained:
# MCF-7 cells [1] = assay: Flow cytometry Annexin V apoptosis detection; format: cell-based, human; conditions: MCF-7, Annexin V/7ADD
# Protocol: (§1) MCF-7 cells were seeded at 0.8 × 10^5 cells/mL in a 6-well plate and left overnight in a CO2 incubator set at 37 °C. […] Untreated control was prepared simultaneously. After 24, 48, or 72 h of incubation, the cell was harvested using TrypLE (Gibco Thermo Fisher Scientific, Waltham, MA, USA), washed with phosphate buffer saline (PBS), and subjected to the following assays. All assays were tested with three biological replicates.
# Cell apoptosis assay was conducted based on a study method with some changes. […] In brief, harvested cells were washed and re-suspended in 100 µL of PBS. […] Approximately, 10,000 cells in the population were captured. The experiment was qualitatively repeated for three times.
# MCF-7 cells [2] = assay: Real-time quantitative PCR of mRNA expression (SNAIL, VEGF); format: cell-based, human; conditions: qPCR, BHMC-treated vs untreated MCF-7
# Protocol: (§2) Total RNAs including small RNAs were isolated from MCF-7 treated with BHMC using miRNeasy kit (Qiagen, Hilden, Germany) according to manufacturer’s instructions. The quality of extracted RNA was assessed by the NanoDrop-1000 Spectrophotometer (NanoDrop Technologies Inc., Wilmington, DE, USA) and Agilent 2100 Bioanalyzer, and samples with A260/A280 ratio between 1.8 to 2.1 and an RIN value of 8 and above was used for further analysis.
# Real-time quantitative PCR was performed on SNAIL and VEGF, which were the target of miR-30a and miR-3195 [31]. One microgram (μg) of total RNA was reverse transcripted using the QuantiTect Reverse Transcription Kit (Qiagen, USA) according to the manufacturer protocol. Primers were designed using Primer-Blast (Table 2) and synthesized commercially. NEXpro qPCR Evagreen Master Mix (NEX Diagnostics, Gyeonggi-do, Korea) was used to perform the mRNA qPCR based on the manufacturer protocol. The qPCR system CFX96 (BioRad, USA) was used and the qPCR conditions were: 50 °C for 2 min, 95 °C for 10 min, and 40 cycles of 95 °C for 15 s, and 60 °C for 1 min. A final melting curve was performed to ensure that only one amplicon was present. The relative amounts of mRNAs were normalized against reference gene beta-actin (ACTB) as described previously and the fold change for each mRNA was calculated by the 2^−ΔΔCt method.
# MCF-7 cells [3] = assay: Real-time quantitative PCR of miRNAs expression; format: cell-based, human; conditions: qPCR, BHMC-treated vs untreated MCF-7
# Protocol: as §2
# One microgram (μg) of total RNA was used in reverse transcription and the process was conducted using the miScript II RT Kit (Qiagen/SABiosciences, Hilden, Germany) according to the manufacturer protocol. Quantitative RT-PCR was carried out using CFX96 (BioRad, Hercules, CA, USA). […] The miRNA-specific primers for miR-3195, miR-30a, miR-6813-5p, and miR-6132 were designed by miRprimer and commercially synthesized as listed in Table 3. The expression of putative miRNAs was evaluated using geNorm algorithms. PCR reactions were performed in triplicate for each sample. The relative amounts of miRNAs were normalized against reference miRNAs and the fold change for each miRNA was calculated by the 2^−ΔΔCt method.
# MCF-10A cells = assay: MTT cell viability assay, MCF-10A; format: cell-based; conditions: Homo sapiens
# Protocol: (§3) The MTT cell viability assay for MCF-7, MDA-MB-231 and MCF 10A cells were conducted according to a previously reported protocol. MCF-7, MDA-MB-231, and MCF-10A were seeded in a 96-well plate at a concentration of 0.8 × 10^5 cells/mL and left overnight in a CO2 incubator set at 37 °C. Then, BHMC with 2-fold dilution ranging between 180 and 3 µM was added to the respective cell lines while the last row of the 96-well plate served as untreated control cells. After 24, 48, and 72 h of incubation, 20 µL of 5 mg/mL MTT solution was added to all wells and the plate was further incubated for three hours. Then, 180 µL of supernatant was carefully discarded and added with 100 µL of DMSO to solubilize the purple crystals. Optical density was measured at 570 nm wavelength using ELISA Reader (Bio-tek Instrument, Winooski, Vermont, USA). The percentage of cell viability was calculated following deduction of the blank cell absorbance using the formula (Equation (1)):(1) Cell viability % =Absorbance of treated cells/Absorbance of untreated control× 100%
# (§4) The dose–response curve was plotted, and the concentration that yields 50% inhibition of cell growth (IC50) was obtained as a parameter for cytotoxicity. Starting from this point, BHMC with IC50 value was used throughout the study to induce cell death. On the other hand, selectivity index (SI) was obtained by using the following formula (Equation (2)):(2) Selectivity index SI =IC50 of MCF−10A/IC50 of MCF−7 or MDA−MB−231
# MCF-7 cells [4] = assay: Light and fluorescent (AO/PI) microscopic observation; format: cell-based, human; conditions: MCF-7, 8.2 µM of BHMC, 48 h
# Protocol: as §1
# Morphology of control and BHMC-treated MCF-7 cells was observed under light microscope (Nikon, Minato City, Japan). For fluorescent microscope observation, control and BHMC-treated MCF-7 cells (2 × 10^5 cells) were stained with 10 μL of 100 μg/mL acridine orange (AO) and 100 μg/mL propidium iodide (PI) for 10 min. After that, the cells were washed and examined under fluorescent microscope (Nikon FC-35DX, Minato City, Japan) using an excitation filter and barrier filter at 450–490 nm and long pass filter of 520 nm.
# MDA-MB-231 cells = assay: MTT cell viability assay, MDA-MB-231; format: cell-based, human; conditions: for IC50: Homo sapiens, MDA-MB-231, MTT
# Protocol: as §3, §4
# MCF-7 cells [5] = assay: Flow cytometry cell cycle analysis; format: cell-based, human; conditions: MCF-7, BHMC at IC50 (8.2 µM in figure; 12.50 µM in methods)
# Protocol: as §1
# Cell cycle progression of control and BHMC-treated MCF-7 cells was evaluated by staining with BD Cycletest Plus kit (Becton Dickinson, Franklin Lakes, NJ, USA) and subjected to BD FACS Calibur flow cytometer (Becton Dickinson, USA) analysis. In brief, harvested cells were incubated with 250 µL of trypsin buffer for 10 min followed by addition of 200 µL of trypsin inhibitor containing RNase buffer. After 10 min of incubation, the samples were finally stained with 200 µL of PI solution. Flow cytometer analysis was carried out after 10 min of incubation with the PI stain solution. A minimum of 10,000 cells in the population was captured. Three independent experiments were repeated with similar parameter.
# MCF-7 cells [6] = assay: miRNA microarray analysis; format: cell-based, human
# Protocol: as §2
# Total RNA (8 µL) of control and BHMC-treated MCF-7 cells was directly labelled using Flash Tag Biotin HSR Labeling kits (Affymetrix, Santa Clara, CA, USA) in accordance with the instructions of the manufacturer. RNA was heated to 80 °C for 10 min before labeling to inactivate any residual DNase activity. RNA was hybridized for 42 h to the GeneChip miRNA 2.0 array (Affymetrix, Santa Clara, CA, USA). The GeneChip miRNA 2.0 arrays contain 100% miRBase version 15 coverage of 131 organisms and contain probes for 3439 humans non-coding RNAs (ncRNAs), including 1105 miRNAs and 2334 other ncRNAs (including scaRNAs and snoRNAs). Washing and staining were automatically performed using the Affymetrix Fluidics Station 450 (Affymetrix, Santa Clara, CA, USA), and probe intensities were measured using the GeneChip® Scanner (Affymetrix, Santa Clara, CA, USA).
# Data discussed in this publication have been deposited in the NCBI Gene Expression Omnibus and are accessible through the GEO Series accession number GSE155467. Using the gene expression workflow in Partek Genomics Suite software (Cat 4462922G, Partek Inc., St. Louis, MO, USA), the CEL files generated by the Affymetrix data file were converted into .nFMT files. […] Differentially expressed miRNAs (>5-fold change, p < 0.05) were identified using analysis of variance (ANOVA) analysis.
# MCF-7 cells [7] = assay: MTT cell viability assay, MCF-7; format: cell-based, human; conditions: for IC50: Homo sapiens, MCF7, MCF-7, MTT
# Protocol: as §3, §4
# [8] = IC50 of MCF-10A / IC50 of MDA-MB-231, 24 h
# [9] = IC50 of MCF-10A / IC50 of MDA-MB-231, 48 h
# [10] = IC50 of MCF-10A / IC50 of MDA-MB-231, 72 h
# [11] = IC50 of MCF-10A / IC50 of MCF-7, 24 h
# [12] = IC50 of MCF-10A / IC50 of MCF-7, 48 h
# [13] = IC50 of MCF-10A / IC50 of MCF-7, 72 h
structure (smiles),measurement,setting,value
"COc1cc(/C=C2\CCC/C(=C\c3ccc(O)c(OC)c3)C2=O)ccc1O [BHMC, (2E,6E)-2,6-bis-(4-hydroxy-3-methoxybenzylidene)-cyclohexanone]",Early apoptotic cells,"MCF-7 cells [1]; BHMC at IC50, 24 h",10.34%
same,Late apoptotic/necrotic cells,"MCF-7 cells [1]; BHMC at IC50, 24 h",8.81%
same,Early apoptotic cells,"MCF-7 cells [1]; BHMC at IC50, 72 h",43.44%
same,Late apoptotic/necrotic cells,"MCF-7 cells [1]; BHMC at IC50, 72 h",38.22%
same,SNAIL mRNA expression,MCF-7 cells [2],downregulated
same,VEGF mRNA expression,MCF-7 cells [2],downregulated
same,miR-30a-3p expression increment,MCF-7 cells [3],at least 5 fold
same,miR-3195 expression increment,MCF-7 cells [3],at least 5 fold
same,miR-6132 downregulation,MCF-7 cells [3],at least 10 folds
same,miR-6813-5p downregulation,MCF-7 cells [3],at least 10 folds
same,IC50,MCF-10A cells; 24 h,180 ± 3.11 µM
same,IC50,MCF-10A cells; 48 h,108 ± 2.15 µM
same,IC50,MCF-10A cells; 72 h,98.4 ± 3.22 µM
same,"morphological changes, light microscope",MCF-7 cells [4],reduced the MCF-7 cells number and severely distorted the MCF-7 cells shape
same,"morphology, acridine orange and propidium iodide fluorescent microscopy",MCF-7 cells [4],presented the morphological characteristics of apoptotic cells
same,IC50,MDA-MB-231 cells; 24 h,29.4 ± 3.15 µM
same,IC50,MDA-MB-231 cells; 48 h,20.1 ± 1.94 µM
same,IC50,MDA-MB-231 cells; 72 h,19.7 ± 3.14 µM
same,SI MCF10A/MDA-MB-231,MDA-MB-231 cells; [8],6.14
same,SI MCF10A/MDA-MB-231,MDA-MB-231 cells; [9],5.38
same,SI MCF10A/MDA-MB-231,MDA-MB-231 cells; [10],5.00
same,selectivity index (SI) MDA-MB-231 against MCF-10A,"MDA-MB-231 cells; summary over 24, 48 and 72 h",> 5
same,percentage of cells at G2/M phase,MCF-7 cells [5]; 24 h,24.26%
same,percentage of cells at Sub G0/G1 phase,MCF-7 cells [5]; 24 h,6.64%
same,percentage of cells at Sub G0/G1 phase,MCF-7 cells [5]; 72 h,22.80%
same,"downregulation of miR-6813-5p, miR-6132, miR-4725-3p, miR-1587, miR-6779-5p",MCF-7 cells [6]; BHMC-treated MCF-7,at least 30 folds
same,"upregulation of top five overexpressed miRNAs (miR-184, miR-3195, miR-149-5p, miR-30a-3p, miR532-3p)",MCF-7 cells [6]; BHMC-treated MCF-7,at least 10 folds
same,hsa-miR-30a-3p Upregulated Fold Change,MCF-7 cells [6]; BHMC-treated vs control MCF-7,12.9
same,hsa-miR-149-5p Upregulated Fold Change,MCF-7 cells [6]; BHMC-treated vs control MCF-7,13.06
same,hsa-miR-184 Upregulated Fold Change,MCF-7 cells [6]; BHMC-treated vs control MCF-7,17.58
same,hsa-miR-532-3p Upregulated Fold Change,MCF-7 cells [6]; BHMC-treated vs control MCF-7,11.73
same,hsa-miR-1587 Downregulated Fold Change,MCF-7 cells [6]; BHMC-treated vs control MCF-7,−35.89
same,hsa-miR-3195 Upregulated Fold Change,MCF-7 cells [6]; BHMC-treated vs control MCF-7,16.21
same,hsa-miR-4725-3p Downregulated Fold Change,MCF-7 cells [6]; BHMC-treated vs control MCF-7,−41.51
same,hsa-miR-6132 Downregulated Fold Change,MCF-7 cells [6]; BHMC-treated vs control MCF-7,−61.96
same,hsa-miR-6779-5p Downregulated Fold Change,MCF-7 cells [6]; BHMC-treated vs control MCF-7,−33.07
same,hsa-miR-6813-5p Downregulated Fold Change,MCF-7 cells [6]; BHMC-treated vs control MCF-7,−71.82
same,IC50,MCF-7 cells [7]; 24 h,23.5 ± 2.41 µM
same,IC50,MCF-7 cells [7]; 48 h,12.5 ± 1.87 µM
same,IC50,MCF-7 cells [7]; 72 h,11 ± 1.33 µM
same,SI MCF10A/MCF7,MCF-7 cells [7]; [11],7.66
same,SI MCF10A/MCF7,MCF-7 cells [7]; [12],8.64
same,SI MCF10A/MCF7,MCF-7 cells [7]; [13],8.96
same,selectivity index (SI) MCF-7 against MCF-10A,"MCF-7 cells [7]; summary over 24, 48 and 72 h",> 7
"COc1cc(/C=C/C(=O)CC(=O)/C=C/c2ccc(O)c(OC)c2)ccc1O [Curcumin, reference compound]",IC50,MCF-10A cells; 24 h,188 ± 4.52 µM
same,IC50,MCF-10A cells; 48 h,112 ± 4.57 µM
same,IC50,MCF-10A cells; 72 h,100 ± 4.31 µM
same,IC50,MDA-MB-231 cells; 24 h,32 ± 2.81 µM
same,IC50,MDA-MB-231 cells; 48 h,26 ± 2.33 µM
same,IC50,MDA-MB-231 cells; 72 h,23 ± 2.15 µM
same,SI MCF10A/MDA-MB-231,MDA-MB-231 cells; [8],5.88
same,SI MCF10A/MDA-MB-231,MDA-MB-231 cells; [9],4.31
same,SI MCF10A/MDA-MB-231,MDA-MB-231 cells; [10],4.35
same,IC50,MCF-7 cells [7]; 24 h,55.7 ± 2.77 µM
same,IC50,MCF-7 cells [7]; 48 h,45.1 ± 2.12 µM
same,IC50,MCF-7 cells [7]; 72 h,39.8 ± 1.51 µM
same,SI MCF10A/MCF7,MCF-7 cells [7]; [11],3.37
same,SI MCF10A/MCF7,MCF-7 cells [7]; [12],2.48
same,SI MCF10A/MCF7,MCF-7 cells [7]; [13],2.51
